Laboratory results reported in patent US20120067455A1, “Apparatus and Methods for Loading a Drug Eluting Medical Device” (Medtronic Vascular, Inc., priority 2010, published 2012).

Assay: Solubility of sirolimus in solvents and dispersion media
Format: physicochemical
Description: Solution 524 is a homogeneous mixture in which therapeutic substance 112 dissolves within a solvent or a solvent mixture. In one embodiment, solution 524 includes a high-capacity solvent 528 which is an organic solvent that has a high capacity to dissolve therapeutic substance 112. High capacity as utilized herein is defined as an ability to dissolve therapeutic substance 112 at concentrations greater than 500 mg of substance per milliliter of solvent. Examples of high capacity drug dissolving solvents for sirolimus and similar substances include but are not limited to tetrahydrofuran (THF), di-chloromethane (DCM), chloroform, and di-methyl-sulfoxide (DMSO). In addition to the high-capacity solvent, solution 524 may include an excipient 526 in order to assist in drug elution. In one embodiment, excipient 526 may be a surfactant such as but not limited to sorbitan fatty acid esters such as sorbitan monooleate and sorbitan monolaurate, polysorbates such as polysorbate 20, polysorbate 60, and polysorbate 80, cyclodextrins such as 2-hydroxypropyl-beta-cyclodextrin and 2,6-di-O-methyl-beta-cyclodextrin, sodium dodecyl sulfate, octyl glucoside, and low molecular weight poly(ethylene glycol)s. In another embodiment, excipient 526 may be a hydrophilic agent such as but not limited to salts such as sodium chloride and other materials such as urea, citric acid, and ascorbic acid. In yet another embodiment, excipient 526 may be a stabilizer such as but not limited to butylated hydroxytoluene (BHT). Depending on the desired drug load, a low capacity solvent can also be chosen for its reduced solubility of therapeutic substance 112. Low capacity is defined as an ability to dissolve therapeutic substance 112 at concentrations typically below 500 mg of drug per milliliter solvent. Examples of low capacity drug dissolving solvents for sirolimus and similar substances include but are not limited to methanol, ethanol, propanol, acetonitrile, ethyl lactate, acetone, and solvent mixtures like tetrahydrafuran/water (9:1 weight ratio). […]

- solubility in supercritical carbon dioxide (SCCO2): low capacity
- solubility in hexane (hexane): insoluble
- solubility in water (water): insoluble
SMILES: CO[C@H]1C[C@@H]2CC[C@@H](C)[C@@](O)(O2)C(=O)C(=O)N2CCCC[C@H]2C(=O)O[C@H]([C@H](C)C[C@@H]2CC[C@@H](O)[C@H](OC)C2)CC(=O)[C@H](C)/C=C(\C)[C@@H](O)[C@@H](OC)C(=O)[C@H](C)C[C@H](C)/C=C/C=C/C=C/1C [sirolimus]
